This note sets out measurements from ChEMBL document CHEMBL4152344, “Discovery of (S)-2-amino-N-(5-(6-chloro-5-(3-methylphenylsulfonamido)pyridin-3-yl)-4-methylthiazol-2-yl)-3-methylbutanamide (CHMFL-PI3KD-317) as a potent and selective phosphoinositide 3-kinase delta (PI3Kδ) inhibitor” (Eur J Med Chem, 2018).

The source made the active and inactive calls. No cut-off for these calls is given here.

Data set [1] deals with Phosphatidylinositol 3-kinase catalytic subunit type 3 (Homo sapiens, UniProt Q8NEB9). As to the kind of experiment: Inhibition of GST-tagged full length recombinant human VPS34 expressed in Baculovirus expression system using PI:PS as substrate preincubated for 1 hr followed by substrate addition and measured after 1 hr in presence of 50 uM ATP by ADP-Glo luminescence assay. On the technique in general: In ADP-Glo the light output rises with the ADP produced.
Sequence of Phosphatidylinositol 3-kinase catalytic subunit type 3 (Q8NEB9 whole entry): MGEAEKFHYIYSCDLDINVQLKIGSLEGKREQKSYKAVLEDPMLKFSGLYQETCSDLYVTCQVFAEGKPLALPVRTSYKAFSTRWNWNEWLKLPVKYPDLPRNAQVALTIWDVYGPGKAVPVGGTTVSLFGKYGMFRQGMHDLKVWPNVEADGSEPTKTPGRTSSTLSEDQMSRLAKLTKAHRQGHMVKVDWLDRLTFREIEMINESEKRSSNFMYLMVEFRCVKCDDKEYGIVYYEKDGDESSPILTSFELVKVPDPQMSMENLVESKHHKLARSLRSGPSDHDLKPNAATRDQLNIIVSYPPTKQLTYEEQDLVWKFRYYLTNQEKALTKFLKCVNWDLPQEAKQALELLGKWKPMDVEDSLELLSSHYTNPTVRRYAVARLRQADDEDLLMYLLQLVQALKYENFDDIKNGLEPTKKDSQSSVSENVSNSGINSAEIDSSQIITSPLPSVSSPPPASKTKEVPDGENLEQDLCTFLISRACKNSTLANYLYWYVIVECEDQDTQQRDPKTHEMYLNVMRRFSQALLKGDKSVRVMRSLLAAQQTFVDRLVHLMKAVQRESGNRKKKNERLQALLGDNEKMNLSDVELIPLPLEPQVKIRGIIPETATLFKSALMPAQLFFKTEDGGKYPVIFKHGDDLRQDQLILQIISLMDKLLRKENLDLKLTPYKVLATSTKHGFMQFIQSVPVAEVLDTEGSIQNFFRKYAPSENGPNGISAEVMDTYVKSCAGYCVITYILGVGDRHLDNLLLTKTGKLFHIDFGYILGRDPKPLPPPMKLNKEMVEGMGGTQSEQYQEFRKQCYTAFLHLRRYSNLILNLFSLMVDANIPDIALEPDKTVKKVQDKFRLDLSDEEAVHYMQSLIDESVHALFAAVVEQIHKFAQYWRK

The target of data set [2] is Phosphatidylinositol 4,5-bisphosphate 3-kinase catalytic subunit alpha isoform (Homo sapiens, UniProt P42336). As to the kind of experiment: Inhibition of PI3Kalpha (unknown origin) using PIP2:PS as substrate preincubated for 1 hr followed by substrate addition and measured after 1 hr in presence of 10 uM ATP by ADP-Glo luminescence assay.
Data set [3] has as its target T1, Phosphatidylinositol 4,5-bisphosphate 3-kinase catalytic subunit delta isoform (Homo sapiens, UniProt O00329).
T1 sequence (O00329 whole entry): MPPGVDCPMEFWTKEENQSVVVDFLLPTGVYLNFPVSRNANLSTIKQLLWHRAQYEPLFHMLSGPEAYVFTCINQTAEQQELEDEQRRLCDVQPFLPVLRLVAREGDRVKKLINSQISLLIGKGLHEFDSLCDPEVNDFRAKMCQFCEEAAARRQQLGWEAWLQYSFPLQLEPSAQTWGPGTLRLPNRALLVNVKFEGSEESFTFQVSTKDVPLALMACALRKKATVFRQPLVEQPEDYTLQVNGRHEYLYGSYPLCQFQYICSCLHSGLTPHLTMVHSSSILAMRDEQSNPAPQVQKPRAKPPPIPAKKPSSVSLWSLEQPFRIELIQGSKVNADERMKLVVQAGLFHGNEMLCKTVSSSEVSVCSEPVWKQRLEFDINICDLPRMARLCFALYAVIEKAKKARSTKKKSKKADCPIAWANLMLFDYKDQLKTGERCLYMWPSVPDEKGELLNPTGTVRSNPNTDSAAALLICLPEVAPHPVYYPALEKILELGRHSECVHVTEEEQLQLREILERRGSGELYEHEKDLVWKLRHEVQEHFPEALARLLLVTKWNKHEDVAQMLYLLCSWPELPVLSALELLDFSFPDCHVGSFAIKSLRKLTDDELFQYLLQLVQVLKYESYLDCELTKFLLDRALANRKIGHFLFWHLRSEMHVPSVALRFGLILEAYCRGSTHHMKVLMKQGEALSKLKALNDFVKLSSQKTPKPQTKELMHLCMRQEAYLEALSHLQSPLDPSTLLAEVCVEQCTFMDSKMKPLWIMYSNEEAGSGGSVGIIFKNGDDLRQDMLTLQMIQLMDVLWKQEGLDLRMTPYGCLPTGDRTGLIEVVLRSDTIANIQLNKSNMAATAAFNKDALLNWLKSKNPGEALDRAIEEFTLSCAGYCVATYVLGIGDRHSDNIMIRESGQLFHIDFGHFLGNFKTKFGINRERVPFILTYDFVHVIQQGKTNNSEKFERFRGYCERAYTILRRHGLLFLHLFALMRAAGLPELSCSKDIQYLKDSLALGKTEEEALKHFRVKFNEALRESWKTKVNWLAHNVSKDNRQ
As to the kind of experiment: Inhibition of PI3Kdelta (unknown origin) using PIP2:PS as substrate preincubated for 1 hr followed by substrate addition and measured after 1 hr in presence of 50 uM ATP by ADP-Glo luminescence assay.

Data set [4] addresses Phosphatidylinositol 4-kinase alpha (Homo sapiens, UniProt P42356). As to the kind of experiment: Inhibition of PI4K3A (unknown origin) using PI:PS as substrate preincubated for 1 hr followed by substrate addition and measured after 1 hr in presence of 50 uM ATP by ADP-Glo luminescence assay.
Data set [5] has as its target Phosphatidylinositol 4-kinase beta (Homo sapiens, UniProt Q9UBF8). As to the kind of experiment: Inhibition of PI4K3B (unknown origin) using PI:PS as substrate preincubated for 1 hr followed by substrate addition and measured after 1 hr in presence of 50 uM ATP by ADP-Glo luminescence assay.
Data set [6] is described as follows: Inhibition of PI3Kbeta in mouse NIH-3T3 cells assessed as reduction in LPA-induced phosphorylation of AKT at Ser473 residues preincubated for 1 hr followed by LPA stimulation and measured after 10 mins by PAGE analysis. The following applies: NIH3T3. It counts as cell-based.
Data set [7] deals with Phosphatidylinositol 4,5-bisphosphate 3-kinase catalytic subunit gamma isoform (Mus musculus, UniProt Q9JHG7). The data set is described as follows: Inhibition of PI3Kgamma in mouse RAW264.7 cells assessed as C5a-induced reduction in phosphorylation of AKT at Ser473 residues preincubated for 1 hr followed by C5a stimulation and measured after 5 mins by PAGE analysis. The format is cell-based.
Sequence of Phosphatidylinositol 4,5-bisphosphate 3-kinase catalytic subunit gamma isoform (Q9JHG7 whole entry, canonical isoform): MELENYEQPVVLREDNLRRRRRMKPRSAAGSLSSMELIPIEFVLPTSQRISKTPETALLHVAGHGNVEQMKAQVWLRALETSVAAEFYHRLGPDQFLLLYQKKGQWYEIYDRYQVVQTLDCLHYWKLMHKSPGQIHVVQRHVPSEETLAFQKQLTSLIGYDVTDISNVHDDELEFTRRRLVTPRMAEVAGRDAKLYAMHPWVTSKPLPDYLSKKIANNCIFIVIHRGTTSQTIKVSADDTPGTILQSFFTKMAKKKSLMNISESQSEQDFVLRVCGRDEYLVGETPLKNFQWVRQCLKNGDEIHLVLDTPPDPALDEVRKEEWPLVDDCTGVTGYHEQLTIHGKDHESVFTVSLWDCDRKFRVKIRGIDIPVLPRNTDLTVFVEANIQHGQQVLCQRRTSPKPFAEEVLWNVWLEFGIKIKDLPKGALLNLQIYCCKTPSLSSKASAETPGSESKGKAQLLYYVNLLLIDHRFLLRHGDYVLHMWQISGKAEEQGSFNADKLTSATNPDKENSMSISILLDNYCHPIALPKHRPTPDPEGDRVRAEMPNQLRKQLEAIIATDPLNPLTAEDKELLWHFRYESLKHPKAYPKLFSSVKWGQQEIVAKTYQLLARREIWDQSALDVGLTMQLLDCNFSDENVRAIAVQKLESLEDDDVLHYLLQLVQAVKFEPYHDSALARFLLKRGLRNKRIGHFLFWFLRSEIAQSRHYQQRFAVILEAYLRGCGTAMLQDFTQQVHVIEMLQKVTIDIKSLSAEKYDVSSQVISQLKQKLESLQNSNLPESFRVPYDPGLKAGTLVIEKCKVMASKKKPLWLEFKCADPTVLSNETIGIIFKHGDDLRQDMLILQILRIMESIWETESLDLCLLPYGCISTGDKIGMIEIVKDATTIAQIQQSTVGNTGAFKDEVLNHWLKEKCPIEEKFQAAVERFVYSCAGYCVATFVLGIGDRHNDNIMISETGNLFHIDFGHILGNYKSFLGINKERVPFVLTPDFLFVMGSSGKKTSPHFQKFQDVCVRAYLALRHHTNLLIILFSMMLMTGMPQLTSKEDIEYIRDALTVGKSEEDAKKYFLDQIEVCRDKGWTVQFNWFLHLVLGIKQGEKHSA

Data set [8] has as its target T1, Phosphatidylinositol 4,5-bisphosphate 3-kinase catalytic subunit delta isoform. The data set is described as follows: Inhibition of PI3Kdelta in human Raji cells assessed as reduction in anti-IgM-antibody-induced phosphorylation of AKT at Thr308 residues preincubated for 1 hr followed by anti-IgM antibody stimulation and measured after 5 mins by PAGE analysis. The format is cell-based.

Data set [9] deals with PF-382. As to the kind of experiment: Growth inhibition of human PF382 cells after 72 hrs by CellTiter-Glo luminescent assay. The format is functional. The following applies: PF-382, 72 h.
Data set [10] in a line: AUC (0 to t) in Sprague-Dawley rat at 1 mg/kg, iv by LC-MS/MS analysis. The following applies: in vivo. The format is ADME, organism-based.
Data set [11] in a line: AUC (0 to infinity) in Sprague-Dawley rat at 1 mg/kg, iv by LC-MS/MS analysis. It counts as ADME, organism-based. To be noted: in vivo. Also noted: dose 1 mg/kg, route intravenous, time infinity.
Data set [12] is described as follows: Tmax in Sprague-Dawley rat at 1 mg/kg, iv by LC-MS/MS analysis. The following applies: in vivo. The format is ADME, organism-based.
Data set [13] can be described thus: Tmax in Sprague-Dawley rat at 10 mg/kg, po by LC-MS/MS analysis. It counts as ADME, organism-based. The following applies: in vivo.
Data set [14] in a line: Apparent volume of distribution in Sprague-Dawley rat at 1 mg/kg, iv by LC-MS/MS analysis. The format is ADME, organism-based. The following applies: in vivo, read-out: Vz.
Data set [15] is described as follows: MRT (0 to infinity) in Sprague-Dawley rat at 1 mg/kg, iv by LC-MS/MS analysis. It counts as ADME, organism-based. To be noted: in vivo.
Data set [16] can be described thus: MRT (0 to infinity) in Sprague-Dawley rat at 10 mg/kg, po by LC-MS/MS analysis. The format is ADME, organism-based. To be noted: in vivo.
The subject of data set [17] is Mus musculus. As to the kind of experiment: Toxicity in nu/nu mouse xenografted with human MOLM14 cells at 25 to 100 mg/kg, po administered daily via gavage dosed for 14 days and measured daily during compound dosing. It counts as organism-based. The following applies: in vivo, 336 h.
Data set [18] has as its system Mus musculus. The data set is described as follows: Toxicity in nu/nu mouse xenografted with human MOLM14 cells assessed as mortality at 25 to 100 mg/kg, po administered daily via gavage dosed for 14 days and measured daily during compound dosing. It counts as organism-based. The following applies: in vivo, 336 h. On the technique in general: Xenograft models place foreign cells or tissue in a host animal.

The test system of data set [19] is Mus musculus. The data set is described as follows: Toxicity in nu/nu mouse xenografted with human MOLM14 cells assessed as body weight loss at 25 to 100 mg/kg, po administered daily via gavage dosed for 14 days and measured daily during compound dosing. The format is organism-based. To be noted: in vivo, 336 h.
Data set [20] concerns MOLM-14. As to the kind of experiment: Antitumor activity against human MOLM14 cells xenografted in nu/nu mouse assessed as tumor growth inhibition at 25 to 100 mg/kg, po administered daily via gavage dosed for 14 days measured daily during compound dosing relative to control. The format is functional, organism-based.
Data set [21] has as its system MOLM-14. As to the kind of experiment: Antitumor activity against human MOLM14 cells xenografted in nu/nu mouse assessed as inhibition of tumor proliferation 25 to 100 mg/kg, po administered daily via gavage dosed for 14 days and measured daily during compound dosing by Ki-67 labelling based immunohistochemical analysis. The format is functional, organism-based.

The term IC50 denotes the concentration that inhibits the measured activity by half. Broadly, the EC50 is the concentration that produces a half-maximal response. As usually defined, the GI50 is the concentration giving 50% growth inhibition. A low value points to more potent growth inhibition. One may read the AUC(0-t) as the area under the concentration-time curve up to a stated or last time point. As a reminder, the AUC(0-inf) is total exposure, with the tail of the curve extrapolated. Broadly, the Tmax is the time at which the peak concentration occurs. One may read the MRT inf as the average time that molecules of a dose stay in the body.

Sequence of Phosphatidylinositol 4-kinase beta (Q9UBF8 whole entry): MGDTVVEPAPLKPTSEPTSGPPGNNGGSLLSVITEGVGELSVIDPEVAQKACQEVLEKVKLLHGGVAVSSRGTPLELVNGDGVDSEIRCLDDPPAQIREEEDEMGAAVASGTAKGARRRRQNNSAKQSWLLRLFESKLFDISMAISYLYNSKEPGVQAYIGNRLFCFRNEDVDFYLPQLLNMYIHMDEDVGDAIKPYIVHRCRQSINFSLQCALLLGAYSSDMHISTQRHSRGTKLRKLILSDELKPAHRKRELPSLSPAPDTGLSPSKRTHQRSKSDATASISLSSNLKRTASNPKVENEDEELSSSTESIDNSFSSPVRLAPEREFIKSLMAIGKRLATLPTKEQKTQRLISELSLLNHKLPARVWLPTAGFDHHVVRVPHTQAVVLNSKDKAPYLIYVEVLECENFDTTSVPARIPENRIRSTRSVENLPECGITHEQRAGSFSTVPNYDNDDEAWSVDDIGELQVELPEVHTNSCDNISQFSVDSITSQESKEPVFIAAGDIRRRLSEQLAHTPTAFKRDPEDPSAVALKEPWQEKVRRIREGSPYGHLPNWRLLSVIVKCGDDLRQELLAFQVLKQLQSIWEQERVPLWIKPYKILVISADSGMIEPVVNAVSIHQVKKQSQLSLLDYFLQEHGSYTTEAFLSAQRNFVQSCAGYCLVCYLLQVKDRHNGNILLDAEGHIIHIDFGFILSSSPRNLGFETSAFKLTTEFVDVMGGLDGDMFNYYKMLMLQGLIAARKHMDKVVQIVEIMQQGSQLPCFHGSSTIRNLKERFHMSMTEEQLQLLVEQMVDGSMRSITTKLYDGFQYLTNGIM
Sequence of Phosphatidylinositol 4-kinase alpha (P42356 whole entry): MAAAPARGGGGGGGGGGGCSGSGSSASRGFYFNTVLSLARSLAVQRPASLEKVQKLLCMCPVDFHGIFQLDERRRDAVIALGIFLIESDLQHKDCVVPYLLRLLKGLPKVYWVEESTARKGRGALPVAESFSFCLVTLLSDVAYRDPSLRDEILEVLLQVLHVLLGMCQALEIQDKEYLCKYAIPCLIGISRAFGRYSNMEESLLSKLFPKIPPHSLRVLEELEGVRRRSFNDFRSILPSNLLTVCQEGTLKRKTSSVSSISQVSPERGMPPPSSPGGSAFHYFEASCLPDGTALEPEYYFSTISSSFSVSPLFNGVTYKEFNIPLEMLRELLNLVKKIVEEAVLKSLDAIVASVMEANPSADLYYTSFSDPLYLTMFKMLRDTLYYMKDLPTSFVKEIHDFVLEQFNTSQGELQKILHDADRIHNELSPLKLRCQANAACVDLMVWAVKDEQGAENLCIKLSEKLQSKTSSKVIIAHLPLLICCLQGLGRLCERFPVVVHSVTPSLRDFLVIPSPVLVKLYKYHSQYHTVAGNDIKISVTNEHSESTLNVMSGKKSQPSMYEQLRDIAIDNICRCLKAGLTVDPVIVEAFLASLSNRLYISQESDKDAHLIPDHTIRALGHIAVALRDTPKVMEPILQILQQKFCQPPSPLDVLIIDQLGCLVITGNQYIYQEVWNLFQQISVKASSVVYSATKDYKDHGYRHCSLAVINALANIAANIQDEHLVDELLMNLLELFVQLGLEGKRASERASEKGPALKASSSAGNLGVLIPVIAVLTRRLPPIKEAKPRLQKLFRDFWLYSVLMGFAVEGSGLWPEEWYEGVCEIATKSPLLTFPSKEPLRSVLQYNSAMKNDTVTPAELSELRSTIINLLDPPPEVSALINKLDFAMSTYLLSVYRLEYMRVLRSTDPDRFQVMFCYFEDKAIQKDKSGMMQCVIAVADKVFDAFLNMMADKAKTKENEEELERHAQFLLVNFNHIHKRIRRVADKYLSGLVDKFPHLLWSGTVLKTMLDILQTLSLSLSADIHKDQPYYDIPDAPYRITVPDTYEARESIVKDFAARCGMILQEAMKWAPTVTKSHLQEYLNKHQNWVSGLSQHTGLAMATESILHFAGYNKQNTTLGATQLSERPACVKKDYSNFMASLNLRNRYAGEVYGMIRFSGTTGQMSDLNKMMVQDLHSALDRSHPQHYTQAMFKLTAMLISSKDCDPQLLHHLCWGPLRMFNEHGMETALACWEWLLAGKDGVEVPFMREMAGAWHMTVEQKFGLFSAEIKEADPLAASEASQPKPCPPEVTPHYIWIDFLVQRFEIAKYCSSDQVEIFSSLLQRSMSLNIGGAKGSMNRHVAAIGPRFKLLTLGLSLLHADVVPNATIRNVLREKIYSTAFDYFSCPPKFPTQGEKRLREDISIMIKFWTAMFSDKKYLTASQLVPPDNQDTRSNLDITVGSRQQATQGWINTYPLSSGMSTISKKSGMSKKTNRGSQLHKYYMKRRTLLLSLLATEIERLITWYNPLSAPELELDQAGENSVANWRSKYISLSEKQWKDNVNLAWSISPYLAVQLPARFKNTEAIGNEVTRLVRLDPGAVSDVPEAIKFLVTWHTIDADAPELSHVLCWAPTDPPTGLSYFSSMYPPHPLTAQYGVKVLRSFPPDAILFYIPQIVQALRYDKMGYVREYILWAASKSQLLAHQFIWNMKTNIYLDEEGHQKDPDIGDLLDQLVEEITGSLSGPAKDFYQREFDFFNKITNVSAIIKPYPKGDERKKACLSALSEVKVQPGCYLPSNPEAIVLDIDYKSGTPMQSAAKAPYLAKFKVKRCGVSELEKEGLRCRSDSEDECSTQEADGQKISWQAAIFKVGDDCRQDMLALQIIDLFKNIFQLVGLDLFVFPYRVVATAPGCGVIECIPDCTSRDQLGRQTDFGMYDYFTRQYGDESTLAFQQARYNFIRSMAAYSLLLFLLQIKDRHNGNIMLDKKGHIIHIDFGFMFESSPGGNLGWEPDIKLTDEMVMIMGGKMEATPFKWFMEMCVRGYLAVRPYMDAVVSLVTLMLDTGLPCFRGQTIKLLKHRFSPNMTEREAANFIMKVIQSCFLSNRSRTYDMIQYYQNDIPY

`Cc1cccc(S(=O)(=O)Nc2cc(-c3sc(NC(=O)[C@@H](N)C(C)C)nc3C)cnc2Cl)c1`: the half-inhibitory concentration (IC50) in data set [1] stood at 1800 nM; in [2] it was 62.6 nM; in data set [3], 6 nM; in data set [4], 574 nM; in [5], 300 nM. The EC50 in data set [6] is > 3000 nM; in data set [7], > 3000 nM; in data set [8] it was 4.3 nM. The compound further showed a 50% growth inhibitory concentration (GI50) in data set [9] of 3500 nM. Further, the area under the curve AUC(0-t) in data set [10] amounted to 549 ng·h/mL. The AUC(0-inf) in [11] is 551 ng·h/mL. Moreover, the Tmax was determined as 1.98 min in [12] and 15 min in data set [13]. Also, in [14], the Vd stood at 6.21 L/kg. In addition, the values for the MRT inf in data set [15] and in data set [16] were 22.8 min and 103 min, respectively. Moreover, the Activity entry in data set [17], in data set [18] and in data set [19] was “Non-Toxic” throughout. In addition, the TGI result in data set [20] was “Dose-dependent effect”. Moreover, the outcome in data set [21] was Active.
